Test results from patent US6608076B1, “Camptothecin derivatives and polymeric conjugates thereof” (priority 2002, dated 2003).

Tested on: human mammary carcinoma (MX-1)
Test: Efficacy against subcutaneous human mammary carcinoma (MX-1) xenograft in nude mice
Type: in vivo
Excerpt: General Procedures. All reactions were run under an atmosphere of dry nitrogen or argon. Commercial reagents were used without further purification. All PEG compounds were 40 kDa and were dried under vacuum or by azeotropic distillation from toluene prior to use. ^13C NMR spectra were obtained at 75.46 MHz using a Varian Mercurye® 300 NMR spectrometer and deuterated chloroform as the solvent unless otherwise specified. Chemical shifts (δ) are reported in parts per million (ppm) downfield from tetramethylsilane (TMS). All PEG conjugated compounds were dissolved in saline for injection prior to in vivo drug treatments and were given as their camptothecin equivalents (absolute amount of camptothecin given). HPLC method. The reaction mixtures and the purity of intermediates and final products were monitored by a Beckman Coulter System Gold® HPLC instrument employing a ZOBAXO® 300 SB C-8 reversed phase column (150×4.6 mm) or a Phenomenex Jupiter® 300A C18 reversed phase column (150×4.6 mm) with a multiwavelength UV detector, using a gradient of 30-90% of acetonitrile in 0.5% trifluoroacetic acid (TFA) at a flow rate of 1 mL/min.
The efficacy of open-form camptothecin analogs against a subcutaneous human mammary carcinoma (MX-1) grown in nude mice was determined as follows. Following at least one week of acclimation, tumors were established by implanting small tumor fragments from donor mice into a single subcutaneous site, on the left axillary flank region of nude mice. The tumor implantation site was observed twice weekly and measured once palpable. The tumor volume for each mouse was determined by measuring two dimensions with calipers and calculated using the formula: tumor volume=(length×width^2). When tumors reached the average volume of approximately 75 mm^3, the mice were divided into their experimental groups, which consists of untreated controls, PEG40,000-ala-20(S)-Camptothecin, compound 8, and compound 18.
The mice were sorted to evenly distribute tumor size, grouped into 4 to 5 mice/cage, and ear punched for permanent identification. Drugs were dosed intravenously via the tail vein as a single dose (Qd1). Mouse weight and tumor sizes were measured at the beginning of study and twice weekly through week 5. The overall growth of tumors was calculated as the mean tumor volume at one week following the end of the treatment. A percent treatment over control (T/C) value was also calculated when the control group's median tumor size reached approximately 800-1100 mm^3 and again at one week following treatment. The T/C value in percent is a non-quantitative indication of anti-tumor effectiveness.

## PEG40,000-ala-20(S)-Camptothecin
At equivalent doses
  Difference in antitumor activity between the three compounds: no significant (P<0.05) difference in the antitumor activity
i.v. Qd1 (24 mg/kg/dose), Day 25
  Tumor Regression at Day 25 (#/grp): 5/5
i.v. Qd1 (24 mg/kg/dose), median tumor volume treated vs control when control median reached approx. 1000 mm^3, T/C < 42% considered significant
  T/C (%) At 1000 mm^3: 1.4%
i.v. single dose, statistical comparison, P<0.05
  Tumor volume as compared to control mice: significantly (P<0.05) smaller tumor volumes
Intravenous single dose Qd1 (24 mg/kg/dose, camptothecin equivalents), established tumors ~75 mm^3, Day 21
  Tumor Volume (mean ± sem) Day 21: 15 ± 5 mm^3
